Our source for the IC50 values is US11858941B2, “Heterocyclic and heteroaryl compounds for treating Huntington's disease” (PTC THERAPEUTICS, INC., priority 2018, dated 2024).

The subject of this experiment is Endogenous Huntingtin Protein. Kind of experiment: Endogenous Huntingtin Protein Assay (Meso Scale Discovery ELISA-based electrochemiluminescence). Type of experiment: cell-based. The following applies: MSD plates coated with MW1 (expanded polyglutamine) or MAB2166 capture antibody; lysates. Summed up: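 MSD electrochemiluminescence sandwich ELISA: MW1 (expanded polyQ) or MAB2166 capture antibody at 1 μg/mL, samples incubated overnight at 4° C. Detection with rabbit monoclonal #5656S then SULFO-TAG anti-rabbit antibody, each 0.25 μg/mL for 1 h at room temperature.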

In the case of `CCOc1cc(-c2ccc(-c3cc4nnn(C5CC(C)(C)NC(C)(C)C5)c4nn3)c(O)c2)ncn1` [Cpd 124, 5-(6-ethoxypyrimidin-4-yl)-2-[3-(2,2,6,6-tetramethylpiperidin-4-yl)-3H-[1,2,3]triazolo[4,5-c]pyridazin-6-yl]phenol], the IC50 (usually the concentration needed to halve the response being measured) was at most 0.1 µM.
Under `CC1(C)CC(n2nnc3cc(-c4ccc(-c5cnc6nccn6c5)cc4O)nnc32)CC(C)(C)N1` [Cpd 160, 5-(imidazo[1,2-a]pyrimidin-6-yl)-2-(3-(2,2,6,6-tetramethylpiperidin-4-yl)-3H-[1,2,3]triazolo[4,5-c]pyridazin-6-yl)phenol] stands 0.1 to 0.5 µM.
The same measure for `CC1(C)CC(n2nnc3cc(-c4ccc(-n5cccn5)cc4O)nnc32)CC(C)(C)N1` [Cpd 34, 5-(1H-pyrazol-1-yl)-2-[3-(2,2,6,6-tetramethylpiperidin-4-yl)-3H-[1,2,3]triazolo[4,5-c]pyridazin-6-yl]phenol]: 0.1 to 0.5 µM.
The same measure for `CC1(C)CC(N2CCc3cc(-c4ccc(-c5cn[nH]c5)c(F)c4F)nnc32)CC(C)(C)N1` [Cpd 32, 3-[2,3-difluoro-4-(1H-pyrazol-4-yl)phenyl]-7-(2,2,6,6-tetramethylpiperidin-4-yl)-6,7-dihydro-5H-pyrrolo[2,3-c]pyridazine]: 0.1 to 0.5 µM.
With `CC1(C)CC(n2nnc3cc(-c4ccc(-c5ccnc(C(F)(F)F)c5)cc4O)nnc32)CC(C)(C)N1` [Cpd 74, 2-[3-(2,2,6,6,-tetramethylpiperidin-4-yl)-3H-[1,2,3]triazolo[4,5-c]pyridazin-6-yl]-5-[2-(trifluoromethyl)pyridin-4-yl]phenol], the half-maximal inhibitory concentration (IC50) is 0.1 to 0.5 µM.
With `CC1(C)C[C@H](n2nnc3cc(-c4ccc(-c5cn[nH]c5)cc4O)nnc32)[C@H](F)C(C)(C)N1` [Cpd 164, 2-{3-[(3S,4S)-3-fluoro-2,2,6,6-tetramethylpiperidin-4-yl]-3H-[1,2,3]triazolo[4,5-c]pyridazin-6-yl}-5-(1H-pyrazol-4-yl)phenol], the IC50 is at most 0.1 µM.
Molecule `Cn1ccc(-c2ccc(-c3cc4nnn(C5CC(C)(C)NC(C)(C)C5)c4nn3)c(O)c2)cc1=O` [Cpd 37, 4-{3-hydroxy-4-[3-(2,2,6,6-tetramethylpiperidin-4-yl)-3H-[1,2,3]triazolo[4,5-c]pyridazin-6-yl]phenyl}-1-methylpyridin-2(1H)-one] displayed an IC50 of at most 0.1 µM.
The same measure for `Cn1cc(-c2cc(O)c(-c3cc4nnn(C5CC(C)(C)NC(C)(C)C5)c4nn3)cc2F)cn1` [Cpd 62, 4-fluoro-5-(1-methyl-1H-pyrazol-4-yl)-2-[3-(2,2,6,6-tetramethylpiperidin-4-yl)-3H-[1,2,3]triazolo[4,5-c]pyridazin-6-yl]phenol]: at most 0.1 µM; for `CC1(C)C=C(c2coc3cc(-c4ccc(-c5cn[nH]c5)cc4O)nnc23)CC(C)(C)N1` [Cpd 105, 5-(1H-pyrazol-4-yl)-2-[7-(2,2,6,6-tetramethyl-1,2,3,6-tetrahydropyridin-4-yl)furo[3,2-c]pyridazin-3-yl]phenol]: at most 0.1 µM; for `Fc1c(-c2cn[nH]c2)ccc(-c2cc3c(nn2)N(C2CC4CCC(C2)N4)CC3)c1F` (stereo not drawn) [Cpd 36, 7-[(3-exo)-8-azabicyclo[3.2.1]oct-3-yl]-3-[2,3-difluoro-4-(1H-pyrazol-4-yl)phenyl]-6,7-dihydro-5H-pyrrolo[2,3-c]pyridazine]: 0.1 to 0.5 µM.
Consider `Cc1cnc(-c2ccc(-c3cc4nnn(C5CC(C)(C)NC(C)(C)C5)c4nn3)c(O)c2)s1` [Cpd 133, 5-(5-methyl-1,3-thiazol-2-yl)-2-[3-(2,2,6,6-tetramethylpiperidin-4-yl)-3H-[1,2,3]triazolo[4,5-c]pyridazin-6-yl]phenol], for which the IC50 is 0.1 to 0.5 µM.
Molecule `Oc1cc(-c2cn[nH]c2)ccc1-c1cc2scc(C3=CCNCC3)c2nn1` [Cpd 15, 5-(1H-pyrazol-4-yl)-2-[7-(1,2,3,6-tetrahydropyridin-4-yl)thieno[3,2-c]pyridazin-3-yl]phenol] gave an IC50 of 1 to 3 µM.
Under `CCn1ncc(-c2ccc(-c3cc4nnn(C5CC(C)(C)NC(C)(C)C5)c4nn3)c(O)c2)c1F` [Cpd 122, 5-(1-ethyl-5-fluoro-1H-pyrazol-4-yl)-2-[3-(2,2,6,6-tetramethylpiperidin-4-yl)-3H-[1,2,3]triazolo[4,5-c]pyridazin-6-yl]phenol] stands 1 to 3 µM; under `CC1(C)CC(n2cnc3cc(-c4cc(F)c(-c5cn[nH]c5)cc4F)nnc32)CC(C)(C)N1` [Cpd 4, 3-[2,5-difluoro-4-(1H-pyrazol-4-yl)phenyl]-7-(2,2,6,6-tetramethylpiperidin-4-yl)-7H-imidazo[4,5-c]pyridazine], at most 0.1 µM; under `Oc1cc(-c2cn[nH]c2)ccc1-c1cc2[nH]cc(C3CC4CCC(C3)N4)c2nn1` (centres unmarked) [Cpd 29, 2-[7-(8-azabicyclo[3.2.1]oct-3-yl)-5H-pyrrolo[3,2-c]pyridazin-3-yl]-5-(1H-pyrazol-4-yl)phenol], at most 0.1 µM.
`CC1(C)CC(n2nnc3cc(-c4cc(O)c(-c5cn[nH]c5)cc4O)nnc32)CC(C)(C)N1` [Cpd 58, 2-(1H-pyrazol-4-yl)-5-[3-(2,2,6,6-tetramethylpiperidin-4-yl)-3H-[1,2,3]triazolo[4,5-c]pyridazin-6-yl]benzene-1,4-diol] yielded an IC50 of 0.1 to 0.5 µM.
Under `CC1(C)CC(n2nnc3cc(-c4ccc(-c5ncc[nH]5)cc4O)nnc32)CC(C)(C)N1` [Cpd 91, 5-(1H-imidazol-2-yl)-2-[3-(2,2,6,6-tetramethylpiperidin-4-yl)-3H-[1,2,3]triazolo[4,5-c]pyridazin-6-yl]phenol] stands 1 to 3 µM.
As for `CC1(C)CC(N2CCc3cc(-c4ccc(-c5cn[nH]c5)cc4O)nnc32)CC(C)(C)N1` [Cpd 23, 5-(1H-pyrazol-4-yl)-2-[7-(2,2,6,6-tetramethylpiperidin-4-yl)-6,7-dihydro-5H-pyrrolo[2,3-c]pyridazin-3-yl]phenol], the half-maximal inhibitory concentration (IC50) is at most 0.1 µM.
Under `CC1(C)CC(n2nnc3cc(-c4ccc(-c5cnoc5)cc4O)nnc32)CC(C)(C)N1` [Cpd 120, 5-(1,2-oxazol-4-yl)-2-[3-(2,2,6,6-tetramethylpiperidin-4-yl)-3H-[1,2,3]triazolo[4,5-c]pyridazin-6-yl]phenol] stands 0.1 to 0.5 µM; under `CC1(C)CC(n2nnc3cc(-c4ccc(-c5cc[nH]n5)cc4O)nnc32)CC(C)(C)N1` [Cpd 48, 5-(1H-pyrazol-3-yl)-2-[3-(2,2,6,6-tetramethylpiperidin-4-yl)-3H-[1,2,3]triazolo[4,5-c]pyridazin-6-yl]phenol], 0.1 to 0.5 µM; under `CC1(C)CC(n2nnc3cc(-c4ccc(-c5ncco5)cc4O)nnc32)CC(C)(C)N1` [Cpd 111, 5-(1,3-oxazol-2-yl)-2-[3-(2,2,6,6-tetramethylpiperidin-4-yl)-3H-[1,2,3]triazolo[4,5-c]pyridazin-6-yl]phenol], at most 0.1 µM.
The same measure for `CC1(C)CC(n2nnc3cc(-c4ccc(-c5ccc6nccn6n5)cc4O)nnc32)CC(C)(C)N1` [Cpd 162, 5-(imidazo[1,2-b]pyridazin-6-yl)-2-(3-(2,2,6,6-tetramethylpiperidin-4-yl)-3H-[1,2,3]triazolo[4,5-c]pyridazin-6-yl)phenol]: at most 0.1 µM.
Under `CC1(C)CC(n2ccc3cc(-c4ccc(-n5nccn5)cc4O)nnc32)CC(C)(C)N1` [Cpd 176, 2-[7-(2,2,6,6-tetramethylpiperidin-4-yl)-7H-pyrrolo[2,3-c]pyridazin-3-yl]-5-(2H-1,2,3-triazol-2-yl)phenol] stands at most 0.1 µM.
Consider `CC1(C)CC(n2nnc3cc(-c4ccc(-c5ccc(O)cn5)cc4O)nnc32)CC(C)(C)N1` [Cpd 67, 6-{3-hydroxy-4-[3-(2,2,6,6-tetramethylpiperidin-4-yl)-3H-[1,2,3]triazolo[4,5-c]pyridazin-6-yl]phenyl}pyridin-3-ol], for which the IC50 is at most 0.1 µM.
Molecule `CC1(C)CC(n2ncc3cc(-c4ccc(-c5c[nH]nc5F)cc4O)nnc32)CC(C)(C)N1` [Cpd 161, 5-(3-fluoro-1H-pyrazol-4-yl)-2-(1-(2,2,6,6-tetramethylpiperidin-4-yl)-1H-pyrazolo[3,4-c]pyridazin-5-yl)phenol] came in with a 50% inhibitory concentration (IC50) of at most 0.1 µM.
Under `CN1C(C)(C)CC(n2nnc3cc(-c4ccc(-c5cn[nH]c5)cc4O)nnc32)CC1(C)C` [Cpd 52, 2-[3-(1,2,2,6,6-pentamethylpiperidin-4-yl)-3H-[1,2,3]triazolo[4,5-c]pyridazin-6-yl]-5-(1H-pyrazol-4-yl)phenol] stands 0.5 to 1 µM; under `CC1(C)CC(n2nnc3cc(-c4cc5c(cc4O)/C(=N/O)CC5)nnc32)CC(C)(C)N1` [Cpd 82, (3E)-3-(hydroxyimino)-6-[3-(2,2,6,6-tetramethylpiperidin-4-yl)-3H-[1,2,3]triazolo[4,5-c]pyridazin-6-yl]-2,3-dihydro-1H-inden-5-ol], 0.1 to 0.5 µM.
Under `CC1(C)CC(n2nnc3cc(-c4ccc(-c5ccoc5)cc4O)nnc32)CC(C)(C)N1` [Cpd 95, 5-(furan-3-yl)-2-[3-(2,2,6,6-tetramethylpiperidin-4-yl)-3H-[1,2,3]triazolo[4,5-c]pyridazin-6-yl]phenol] stands 0.1 to 0.5 µM; under `CC1(C)CC(n2nnc3cc(-c4ccc(-n5cnc(F)c5)cc4O)nnc32)CC(C)(C)N1` [Cpd 143, 5-(4-fluoro-1H-imidazol-1-yl)-2-[3-(2,2,6,6-tetramethylpiperidin-4-yl)-3H-[1,2,3]triazolo[4,5-c]pyridazin-6-yl]phenol], at most 0.1 µM; under `Cn1cc(-c2ccc(-c3cc4nnn(C5CC(C)(C)NC(C)(C)C5)c4nn3)c(O)c2)cn1` [Cpd 39, 5-(1-methyl-1H-pyrazol-4-yl)-2-[3-(2,2,6,6-tetramethylpiperidin-4-yl)-3H-[1,2,3]triazolo[4,5-c]pyridazin-6-yl]phenol], at most 0.1 µM.
Under `CC1(C)CC(n2nnc3cc(-c4ccc(-c5cnc6cnccn56)cc4O)nnc32)CC(C)(C)N1` [Cpd 85, 5-(imidazo[1,2-a]pyrazin-3-yl)-2-[3-(2,2,6,6-tetramethylpiperidin-4-yl)-3H-[1,2,3]triazolo[4,5-c]pyridazin-6-yl]phenol] stands 1 to 3 µM; under `CC1(C)CC(n2cnc3cc(-c4ccc(-c5cn[nH]c5)cc4O)nnc32)CC(C)(C)N1` [Cpd 3, 5-(1H-pyrazol-4-yl)-2-[7-(2,2,6,6-tetramethylpiperidin-4-yl)-7H-imidazo[4,5-c]pyridazin-3-yl]phenol], at most 0.1 µM.
